{
  "source": "patent US20180272327A1",
  "about": "“IONIC LIQUID CATALYST TREATING SYSTEM” (UOP LLC, priority 2015, published 2018)",
  "test_system": "Aliivibrio fischeri bacteria",
  "assay": "Toxicity test: EC-50 for the luminescence of Aliivibrio fischeri bacteria",
  "type": "cell-based",
  "details": "for EC-50 for this ionic liquid: worked out from the dilution EC-50 and the ionic liquid content of the solution",
  "experimental": "After filtration to remove the precipitate, this solution, which contains approximately 0.014 mg of ionic liquid/mg solution, was tested for toxicity. The half maximal effective concentration (EC-50) for this solution was then determined for the luminescence of Aliivibrio fischeri bacteria to assess the toxicity of the solution. […] 10.1 grams of a tri-butyl pentyl phosphonium ionic liquid (TBPP) was added to 770 grams of deionized (DI) water, giving a pH of about 3. […] After filtration to remove the precipitate, this solution, which contains approximately 0.013 mg of ionic liquid/mg solution, was tested for toxicity. The EC-50 for this solution was then determined for the luminescence of Aliivibrio fischeri bacteria to assess the toxicity of the solution.",
  "key": {"[1]": {"details": "luminescence of Aliivibrio fischeri"}},
  "data": [
    {"compound": "CCCCn1cc[n+](C)c1.F[P-](F)(F)(F)(F)F", "note": "[BMIM, 1-butyl-3-methylimidazolium hexafluorophosphate]", "values": [
      {"measurement": "EC50", "setting": "Aliivibrio fischeri, read-out: EC-50 reached at a dilution (of the neutralized, filtered ionic liquid solution)", "result": 5.7, "unit": "µg/mL"},
      {"measurement": "EC-50 for this ionic liquid", "setting": "[1]", "result": "approximately 80 ppB"}
    ]},
    {"compound": "tri-butyl pentyl phosphonium ionic liquid [TBPP]", "values": [
      {"measurement": "EC-50 reached at a dilution (of the neutralized, filtered ionic liquid solution)", "setting": "luminescence of Aliivibrio fischeri, ionic liquid in DI water neutralized with NaOH to pH approximately 6, precipitate filtered off, approximately 0.013-0.014 mg ionic liquid/mg solution", "result": 1.2, "unit": "mg solution/Liter water"},
      {"measurement": "EC-50 for this ionic liquid", "setting": "[1]", "result": "approximately 16 ppB"}
    ]}
  ]
}
